Key:
[1] = target: MAPK14 (human) (UniProt Q16539); experiment: Inhibition of LPS Stimulated TNF Production by U937 Cells; conditions: for inhibition: concentration not given here
[2] = target: MAPK14 (human) (UniProt Q16539); experiment: Inhibition of MAPK14 Kinase Activity by PHAS-I Assay; conditions: for inhibition: concentration not given here

Sequence of MAPK14 (human) (Q16539 whole entry, looked up): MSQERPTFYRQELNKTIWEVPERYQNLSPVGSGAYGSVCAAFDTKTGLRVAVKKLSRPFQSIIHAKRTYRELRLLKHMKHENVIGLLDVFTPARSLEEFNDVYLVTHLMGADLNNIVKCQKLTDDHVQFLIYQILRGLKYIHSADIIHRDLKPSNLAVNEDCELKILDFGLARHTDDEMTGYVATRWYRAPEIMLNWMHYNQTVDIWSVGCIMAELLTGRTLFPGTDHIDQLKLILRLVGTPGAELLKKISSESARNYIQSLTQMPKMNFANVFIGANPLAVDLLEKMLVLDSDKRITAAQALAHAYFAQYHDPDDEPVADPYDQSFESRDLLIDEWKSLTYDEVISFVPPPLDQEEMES

| SMILES | inhibition [1] | inhibition [2] | IC50 [2] | IC50 [1] |
| --- | --- | --- | --- | --- |
| O=S(=O)(NCCc1[nH]nc(-c2ccc(F)cc2)c1-c1ccncc1)C(F)(F)F | 66% | 82% | – | – |
| CC1(C)[C@@H]2CC[C@]1(CS(=O)(=O)NCCCc1[nH]nc(-c3ccc(F)cc3)c1-c1ccncc1)C(=O)C2 | 59% | – | < 100 nM | – |
| COC(=O)C1CN1C(=O)Cn1nc(-c2ccc(F)cc2)c(-c2ccncc2)c1C (stereo not given) | 24% | 45% | – | – |
| O=C(NCc1[nH]nc(-c2ccc(F)cc2)c1-c1ccncc1)C(F)(F)C(F)(F)C(F)(F)F | 54% | 96% | – | – |
| CCN(Cc1ccncc1)C(=O)Cn1nc(-c2ccc(F)cc2)c(-c2ccncc2)c1C | 2% | 68% | – | – |
| O=C(NCCc1[nH]nc(-c2ccc(F)cc2)c1-c1ccncc1)C1CCCC1 | 45% | 79% | – | – |
| CCOC(=O)C(NC(=O)NCCc1[nH]nc(-c2ccc(F)cc2)c1-c1ccncc1)C(C)C (stereo not given) | 36% | 79% | – | – |
| O=S(=O)(NCc1[nH]nc(-c2ccc(F)cc2)c1-c1ccncc1)c1cc2nnoc2c2ccccc12 | 32% | 50% | – | – |
| O=S(=O)(NCCCc1[nH]nc(-c2ccc(F)cc2)c1-c1ccncc1)C(F)(F)F | 68% | 74% | – | – |
| N#Cc1ccc(C(=O)NCc2[nH]nc(-c3ccc(F)cc3)c2-c2ccncc2)cc1 | 40% | 53% | – | – |
| COc1ccc(Br)cc1S(=O)(=O)N[C@@H](C)c1[nH]nc(-c2ccc(F)cc2)c1-c1ccncc1 | 81% | – | 1780 nM | – |
| CC(=O)Nc1ccc(S(=O)(=O)N[C@@H](C)c2[nH]nc(-c3ccc(F)cc3)c2-c2ccncc2)cc1 | 73% | – | 59 nM | – |
| CCCCCc1cccc(C(C)NC(=O)Cn2nc(-c3ccc(F)cc3)c(-c3ccncc3)c2C)c1 (stereo not given) | 25% | 65% | – | – |
| COC(=O)[C@@H]1CCCN1C(=O)Cn1nc(-c2ccc(F)cc2)c(-c2ccncc2)c1C | 39% | 60% | – | – |
| Cc1c(-c2ccncc2)c(-c2ccc(F)cc2)nn1CC(=O)N1CCC[C@H]1CN1CCCC1 | 10% | 49% | – | – |
| O=C(NCCc1[nH]nc(-c2ccc(F)cc2)c1-c1ccncc1)N1CCCC1 | 37% | 76% | – | – |
| CC(=O)OC(C)(C)C(=O)NCCc1[nH]nc(-c2ccc(F)cc2)c1-c1ccncc1 | 71% | 70% | – | – |
| O=C(NCCc1[nH]nc(-c2ccc(F)cc2)c1-c1ccncc1)[C@H]1CCCN1 | 63% | 89% | – | – |
| C[C@@H](NS(=O)(=O)c1cc(Cl)cc(Cl)c1O)c1[nH]nc(-c2ccc(F)cc2)c1-c1ccncc1 | 71% | – | 1110 nM | – |
| Cc1c(-c2ccncc2)c(-c2ccc(F)cc2)nn1CC(=O)NC1CCCC1 | 36% | 58% | – | – |
| Cc1cc(C)c(NC(=O)NCCc2[nH]nc(-c3ccc(F)cc3)c2-c2ccncc2)c(C)c1 | 47% | 57% | – | – |

Continued, values first:

| inhibition [1] | inhibition [2] | IC50 [2] | IC50 [1] | SMILES |
| --- | --- | --- | --- | --- |
| 55% | 80% | – | – | CC(Oc1ccccc1)C(=O)NCCc1[nH]nc(-c2ccc(F)cc2)c1-c1ccncc1 (stereo not given) |
| 52% | 98% | – | – | CC(=O)Oc1cccc(C(=O)NCc2[nH]nc(-c3ccc(F)cc3)c2-c2ccncc2)c1 |
| 42% | 55% | – | – | COc1ccc(CC(=O)NCCc2[nH]nc(-c3ccc(F)cc3)c2-c2ccncc2)cc1 |
| 36% | 67% | – | – | O=C(NCCc1[nH]nc(-c2ccc(F)cc2)c1-c1ccncc1)NC(=O)c1ccccc1 |
| 68% | 68% | – | – | CNC(=O)NCCc1[nH]nc(-c2ccc(F)cc2)c1-c1ccncc1 |
| 23% | 65% | – | – | O=C(NCCc1[nH]nc(-c2ccc(F)cc2)c1-c1ccncc1)c1ccccc1I |
| – | 23% | – | 2050 nM | O=C(NCc1[nH]nc(-c2ccc(F)cc2)c1-c1ccncc1)Nc1ccccc1F |
| 73% | 70% | – | – | CCCNC(=O)NCCc1[nH]nc(-c2ccc(F)cc2)c1-c1ccncc1 |
| 57% | 62% | – | – | CC(=O)OCC(=O)NCCc1[nH]nc(-c2ccc(F)cc2)c1-c1ccncc1 |

From the Kinase Knowledgebase extract (Sharma et al. 2016)
